ChEMBL document CHEMBL2057125, “Structural simplification of bioactive natural products with multicomponent synthesis. 4. 4H-pyrano-[2,3-b]naphthoquinones with anticancer activity” (2012)

What was measured:
[1] = tested on: HeLa; test: Antiproliferative activity against human HeLa cells assessed as reduction in cell viability after 48 hrs by MTT assay; type: functional
[2] = Antiproliferative activity against human MCF7/AZ cells assessed as reduction in cell viability after 48 hrs by MTT assay; type: functional
[3] = tested on: PC-3; test: Antiproliferative activity against human PC3 cells assessed as reduction in cell viability after 72 hrs by MTT assay; type: functional; conditions: PC-3, 72 h
[4] = tested on: LoVo; test: Antiproliferative activity against human LoVo cells assessed as reduction in cell viability after 72 hrs by MTT assay; type: functional
[5] = tested on: SK-MEL-28; test: Antiproliferative activity against human SK-MEL-28 cells assessed as reduction in cell viability after 72 hrs by MTT assay; type: functional; conditions: SK-MEL-28, 72 h
[6] = Antiproliferative activity against human OE21 cells assessed as reduction in cell viability after 72 hrs by MTT assay; type: functional; conditions: OE21, 72 h
[7] = Antiproliferative activity against human Hs683 cells assessed as reduction in cell viability after 72 hrs by MTT assay; type: functional; conditions: Hs 683, 72 h
[8] = tested on: A549; test: Antiproliferative activity against human A549 cells assessed as reduction in cell viability after 72 hrs by MTT assay; type: functional; conditions: A549, 72 h
[9] = Antiproliferative activity against human U373 cells assessed as reduction in cell viability after 72 hrs by MTT assay; type: functional, U-373MG ATCC; conditions: U373 MG
[10] = tested on: Jurkat; test: Induction of apoptosis in human Jurkat cells assessed as apoptotic cells at 50 uM after 24 hrs using annexin-V/Propidium iodide by flow cytometry; type: functional
[11] = tested on: Jurkat; test: Antiproliferative activity against human Jurkat cells assessed as reduction in cell viability after 48 hrs by MTT assay; type: functional

| Compound | GI50 [1] [µM] | GI50 [2] [µM] | GI50 [3] [µM] | GI50 [4] [µM] | GI50 [5] [µM] | GI50 [6] [µM] | GI50 [7] [µM] | GI50 [8] [µM] | GI50 [9] [µM] | Activity [10] [%] | GI50 [11] [µM] |
| --- | --- | --- | --- | --- | --- | --- | --- | --- | --- | --- | --- |
| N#CC1=C(N)OC2=C(C(=O)c3ccccc3C2=O)C1c1cccc(Oc2ccccc2)c1 (stereo not drawn) | 4 | 2.2 | 6.2 | 3.4 | 4.5 | 2.2 | 5 | 5 | 3.4 | 50 | 17.9 |
| N#CC1=C(N)OC2=C(C(=O)c3ccccc3C2=O)C1c1ccc(OC(F)(F)F)cc1 (stereo not drawn) | 4.3 | 7.1 | – | – | – | – | – | – | – | 13.5 | 105 |
| N#CC1=C(N)OC2=C(C(=O)c3ccccc3C2=O)C1c1cccc(Cl)c1 (stereo not drawn) | 77.5 | 59.8 | – | – | – | – | – | – | – | 22 | 108 |
| N#CC1=C(N)OC2=C(C(=O)c3ccccc3C2=O)C1c1ccccc1Cl (stereo not drawn) | 20.5 | 19 | – | – | – | – | – | – | – | 6.3 | 185 |
| N#CC1=C(N)OC2=C(C(=O)c3ccccc3C2=O)C1c1ccc(Cl)cc1 (stereo not drawn) | 31.7 | 24 | – | – | – | – | – | – | – | 23.8 | 105 |
| N#CC1=C(N)OC2=C(C(=O)c3ccccc3C2=O)C1c1c(Cl)cccc1Cl (stereo not drawn) | 5.3 | 3.1 | 6.2 | 4.3 | 17.1 | 17.4 | 19.3 | 40.6 | 12.8 | 5.1 | 172 |
| N#CC1=C(N)OC2=C(C(=O)c3ccccc3C2=O)C1c1cccc(Br)c1 (stereo not drawn) | 16.1 | 28.6 | – | – | – | – | – | – | – | 48.4 | 20 |
| N#CC1=C(N)OC2=C(C(=O)c3ccccc3C2=O)C1c1ccccc1Br (stereo not drawn) | 31.6 | 26.3 | – | – | – | – | – | – | – | 41.7 | 30.7 |
| N#CC1=C(N)OC2=C(C(=O)c3ccccc3C2=O)C1c1ccc(Br)cc1 (stereo not drawn) | 30 | 22.8 | – | – | – | – | – | – | – | 40.1 | 38.3 |
| N#CC1=C(N)OC2=C(C(=O)c3ccccc3C2=O)C1c1c(F)cccc1Cl (stereo not drawn) | 34.4 | 8 | – | – | – | – | – | – | – | 21.3 | 52.3 |
| N#CC1=C(N)OC2=C(C(=O)c3ccccc3C2=O)C1c1ccc(C(F)(F)F)cc1 (stereo not drawn) | 11.8 | 5.6 | – | – | – | – | – | – | – | 15.5 | 80.5 |
| N#CC1=C(N)OC2=C(C(=O)c3ccccc3C2=O)C1c1ccc(-c2ccccc2)cc1 (stereo not drawn) | 23.6 | 26 | – | – | – | – | – | – | – | 11.2 | 122 |
| N#CC1=C(N)OC2=C(C(=O)c3ccccc3C2=O)C1c1ccccc1 (stereo not drawn) | 23.5 | 18.5 | – | – | – | – | – | – | – | 16.7 | 43.3 |
| N#CC1=C(N)OC2=C(C(=O)c3ccccc3C2=O)C1c1cccc([N+](=O)[O-])c1 (stereo not drawn) | 9.1 | 10.8 | – | – | – | – | – | – | – | 33.6 | 19.1 |
| N#CC1=C(N)OC2=C(C(=O)c3ccccc3C2=O)C1c1ccccc1[N+](=O)[O-] (stereo not drawn) | 11.2 | 8.3 | – | – | – | – | – | – | – | 25 | 16.8 |
| N#CC1=C(N)OC2=C(C(=O)c3ccccc3C2=O)C1c1ccc([N+](=O)[O-])cc1 (stereo not drawn) | 16.8 | 9.8 | – | – | – | – | – | – | – | 23.1 | 24.3 |
| N#CC1=C(N)OC2=C(C(=O)c3ccccc3C2=O)C1c1ccc(C(=O)O)cc1 (stereo not drawn) | 119 | 94.4 | – | – | – | – | – | – | – | 4.1 | 332 |
| N#CC1=C(N)OC2=C(C(=O)c3ccccc3C2=O)C1c1ccc(O)cc1 (stereo not drawn) | 30.6 | 8.6 | – | – | – | – | – | – | – | 16.7 | 85 |
| CC(C)c1ccc(C2C(C#N)=C(N)OC3=C2C(=O)c2ccccc2C3=O)cc1 (stereo not drawn) | 62.5 | 34 | – | – | – | – | – | – | – | 2.9 | 80.6 |
| Cc1ccc(C2C(C#N)=C(N)OC3=C2C(=O)c2ccccc2C3=O)o1 (stereo not drawn) | 54.3 | 51.6 | – | – | – | – | – | – | – | 57.8 | 47.8 |
| N#CC1=C(N)OC2=C(C(=O)c3ccccc3C2=O)C1c1cccs1 (stereo not drawn) | 94 | 36.9 | – | – | – | – | – | – | – | 11.2 | 82.4 |
| N#CC1=C(N)OC2=C(C(=O)c3ccccc3C2=O)C1c1ccncc1 (stereo not drawn) | 14.5 | 6 | – | – | – | – | – | – | – | 28.6 | 23.9 |
| N#CC1=C(N)OC2=C(C(=O)c3ccccc3C2=O)C1c1cccnc1 (stereo not drawn) | 14.2 | 3.4 | – | – | – | – | – | – | – | 20.8 | 20.4 |
| CC1(C)CCC2=C(O1)C(=O)c1ccccc1C2=O [ALPHA-LAPACHONE] | 25 | 16.7 | 13 | 24.4 | 4.7 | 22.7 | 9 | 16.3 | 23.1 | 7.4 | 75 |
| CC1(C)CCC2=C(O1)c1ccccc1C(=O)C2=O [LAPACHONE] | 4.6 | 6 | 0.01 | 0.3 | 0.6 | 0.6 | 0.4 | 0.8 | 0.4 | 51 | 6.1 |
